In brackets after ≈: the same amount, converted by molar mass.
Assays:
[1] = tested on: Erwinia amylovora XJSZ0102; experiment: Toxicity of bactericides against Erwinia amylovora (growth inhibition OD600, EC50 regression)
Erwinia amylovora [2] = experiment: Orchard pollination test (II): liquid pollination, bacteria-free pollen, orchard with moderate pear fire blight; settings: artificial pollination with pollen containing the agent, moderate occurrence orchard
Procedure: 10 g of xanthan gum was dissolved in 2.5 L of continuously-boiling water and cooled to obtain a solution I; 6.5 kg of white sugar was dissolved with 10 L of hot water to obtain a solution II; 25 g of calcium nitrate and 5 g of boric acid were dissolved in 0.5 L of water to obtain a solution III; the above three solutions were poured into a large container, then added with 30 L of water, and stirred well to prepare a nutrient solution for later use. […]
4 g of the pollen was added to 4 L of a prepared nutrient solution containing the agent, stirred to make the pollen evenly dispersed to prepare a pollen suspension, which was then pollinated by spraying with a shoulder-back electric sprayer. […] A pollen suspension prepared with water instead of the agent was set as a positive control group, and the pollen suspension prepared with water instead of the agent and sprayed on disease-free trees was set as a negative control group, and 3 trees were treated by each group.2 weeks after pollination, a fruit setting rate and the number of flower rot and diseased fruit were counted to calculate an incidence.

[3] = tested on: Erwinia amylovora XJSZ0102; experiment: Inhibition zone (filter paper) method, high-concentration screening of 52 agents; format: cell-based; settings: results of filter paper method and turbidimetry; at a high concentration
Erwinia amylovora [4] = experiment: Orchard pollination test (I): liquid pollination, bacteria-carrying pollen, disease-free bergamot pear trees; settings: artificial pollination with pollen suspension containing the agent
Procedure: 10 g of xanthan gum was dissolved in 2.5 L of continuously-boiling water and cooled to obtain a solution I; 6.5 kg of white sugar was dissolved with 10 L of hot water to obtain a solution II; 25 g of calcium nitrate and 5 g of boric acid were dissolved in 0.5 L of water to obtain a solution III; the above three solutions were poured into a large container, then added with 30 L of water, and stirred well to prepare a nutrient solution for later use.
Each agent was diluted with water to form a stock solution, and 100 mL of the stock solution was added to 9.9 L of the nutrient solution, fully stirred and mixed, such that a final concentration of the agent in the nutrient solution was shown in Table 7, and 9 groups of agent treatments were obtained in total.
4 g of the pollen was added to 4 L of a prepared nutrient solution containing the agent, stirred to make the pollen evenly dispersed to prepare a pollen suspension, which was then pollinated by spraying with a shoulder-back electric sprayer. The pollination period was at 40% blooming and at 80% blooming separately, each tree was sprayed with 1 L of the pollen suspension, and each agent treatment group was sprayed to pollinate 3 trees. […] 2 weeks after pollination, a fruit setting rate and the number of flower rot and diseased fruit were counted to calculate an incidence.

[5] = Erwinia amylovora, XJSZ0102, 24 h, read-out: Inhibition rate (%)

Compound: CCCSc1ccc2nc(NC(=O)OC)[nH]c2c1 [Albendazole, albendazole]
- EC50 ([1]; Erwinia amylovora, XJSZ0102, 24 h): 0.022 µg/mL (≈ 0.0829 µM)
- inhibition at 0.0125 µg/mL [1, 5]: 15.2%
- inhibition at 0.0175 µg/mL [1, 5]: 33%
- inhibition at 0.025 µg/mL [1, 5]: 54.6%
- inhibition at 0.035 µg/mL [1, 5]: 82%
- inhibition at 0.05 µg/mL [1, 5]: 95.4%
- incidence of pear fire blight-based flower rot and fruit rot, compared with positive control group (Erwinia amylovora [2]): significantly lower than that of the positive control group
- bacteriostatic effect on Erwinia amylovora [3]: desirable bacteriostatic effect
- incidence of flower rot and fruit rot caused by pear fire blight, compared with positive control (Erwinia amylovora [4]): significantly lower incidence than that of the positive control

Compound: zhongshengmycin
- Inhibition rate (%) ([1]; concentration 0.100 mg/L, 24 h): 28.58%
- Inhibition rate (%) ([1]; concentration 0.160 mg/L, 24 h): 40.31%
- Inhibition rate (%) ([1]; concentration 0.256 mg/L, 24 h): 56.63%
- Inhibition rate (%) ([1]; concentration 0.410 mg/L, 24 h): 66.08%
- Inhibition rate (%) ([1]; concentration 0.655 mg/L, 24 h): 81.07%
- EC50 ([1]; toxic regression analysis of bacteriostasis rate, 24 h): 0.22 µg/mL
- incidence of pear fire blight-based flower rot and fruit rot, compared with positive control group (Erwinia amylovora [2]): significantly lower than that of the positive control group
- bacteriostatic effect on Erwinia amylovora [3]: desirable bacteriostatic effect
- incidence of flower rot and fruit rot caused by pear fire blight, compared with positive control (Erwinia amylovora [4]): significantly lower incidence than that of the positive control
